Patent EP1143981B1, “USE OF N-GLYCOLNEURAMINIC ACID AND ITS DERIVATIVES FOR THE MANUFACTURE OF A MEDICAMENT FOR THE TREATMENT OF HIV INFECTIONS” (Glukor, Inc., priority 1998, dated 2000)
“And” between values parts separate entries of the source, which are not always exact repeats. Equal entries are not always repeated. Where two headings read alike, the source gives them in different places.

Experiments:
[1] = tested on: HIV-1ROJO; assay: Reverse transcriptase activity assay in infected PBMCs; assay type: cell-based; details: for RT activity % VC: % virus control; for RT Activity (cpm) / Reverse Transcriptase (RT) Activity (cpm): single samples; for IC50: Human immunodeficiency virus 1, PBMC
Excerpt: PBMCs were isolated from fresh human blood obtained commercially from the American Red Cross (Baltimore, Maryland). CEM-SS cells were obtained from the NIH AIDS reagent program. The low passage, lymphotropic clinical isolate ROJO was obtained from a pediatric patient attending the AIDS Clinic at the University of Alabama at Birmingham. Phytohemagglutinin (PHA-P) was obtained from Sigma Chemical Co. (St. Louis, MO) and recombinant IL-2 was obtained from Amgen (San Francisco, CA). As a positive control for antiviral assays, AZT was obtained from the NIH AIDS Reagent Program. HIV-1RF also was obtained from the NIH AIDS reagent program. Tritiated thymidine triphosphate was obtained from New England Nuclear (Boston, MA). Each plate in each experiment contained cell control wells (cells only), virus control wells (cells plus virus), drug toxicity control wells (cells plus drug only), drug colorimetric control wells (drug only) as well as experimental wells (drug plus cells plus virus).
Fresh human PBMCs were isolated from voluntary Red Cross donors, seronegative for HIV and HBV. Leukophoresed blood was diluted 1:1 with Dulbecco's PBS, layered over 14 mL of Ficoll-Hypaque density gradient in a 50mL centrifuge and then centrifuged for 30 minutes at 600 x g. Banded PBMCs were gently aspirated from the resulting interface and subsequently washed twice with PBS by low speed centrifugation. […] PBMCs were maintained in this medium at a concentration of 1-2 x 10^6 cells/mL with bi-weekly medium changes until used in the assay.
For the standard PBMC assay, PHA-P stimulated cells from at least two normal donors were pooled, diluted in fresh medium to a final concentration of 1 x 10^6 cells/mL, and plated in the interior wells of a 96 well round bottom microplate at 50 µL/well (5 x 10^4 cells/well). Test drug dilutions were prepared at a 2X concentration in microfuge tubes and 100 µL of each concentration was placed in appropriate wells in a standard format. A predetermined dilution of virus stock was placed in each test well (50 µL, final MOI ≅ 0.1). Wells with cells and virus alone were used for virus control. Separate plates were prepared identically without virus for drug cytotoxicity studies using an XTT assay system. The PBMC cultures were maintained for seven days following infection, at which time cell-free supernatant samples were collected and assayed for reverse transcriptase activity as described below.
Virus Preparation: Pre-tittered aliquots of HIV-1ROJO and HIV-1RF were removed from the freezer (-80°C) and thawed to room temperature in a biological safety cabinet. The virus was resuspended and diluted into tissue culture medium such that the amount of virus added to each well in a volume of 50 µL will be the amount determined to give complete cell killing at 6 days post-infection.
Reverse Transcriptase Activity Assay: A microtiter based reverse transcriptase (RT) reaction was utilized as described by Buckheit et al., (1991), AIDS Research and Human Retroviruses, 7:295-302. Tritiated thymidine triphosphate (^3H-TTP) was suspended in distilled H2O at 5 Ci/mL. Poly rA and oligo dT were prepared as a stock solution which was kept at -20°C. RT reaction buffer was prepared fresh on a daily basis and contained 125 µL 1M EGTA, 125 µL dH2O, 110 µL 10% SDS, 50 µL 1M Tris (pH 7.4), 50 µL 1M DTT, and 40 µL 1M MgCl2. These three solutions were mixed together in a ratio of 2 parts ^3H-TTP, 1 part poly rA:oligo dT, and 1 part reaction buffer. Ten microliters of this reaction mixture were placed in a round bottom microtiter plate and 15 µL of virus containing supernatant were added and mixed. The plate was incubated at 37°C in a water bath with a solid support to prevent submersion of the plate and incubated for 60 minutes.

[2] = tested on: HIV-1 MN; assay type: cell-based
Procedure: Test groups included uninfected PBMCs, infected PBMCs with no N-glycolylneuraminic acid, and infected PBMCs plus N-glycolylneuraminic acid. […] Excess virus was removed by washing the cells with PBS one time then the cells were exposed to N-glycolylneuraminic acid. P24 output was measured using the DuPont P24 assay kit (optical density (OD) in Table 15). Syncytia formation was examined as well as cytopathic effects (CPE). […] Sample #7 (p24 123x10^6 pg HIV-1P24/ml) was excluded from the mean P24 output calculation due to a sampling error. […]

[3] = 0.0001 mM, simultaneously exposed to drug and HIV
[4] = 0.00032 mM, 2-hour pretreatment
[5] = 0.00032 mM, simultaneously exposed to drug and HIV
[6] = 0.001 mM, simultaneously exposed to drug and HIV
[7] = 0.0032 mM, simultaneously exposed to drug and HIV
[8] = 0.01 mM, simultaneously exposed to drug and HIV
[9] = 0.032 mM, simultaneously exposed to drug and HIV
[10] = 0.1 mM, simultaneously exposed to drug and HIV
[11] = 0.32 mM, simultaneously exposed to drug and HIV
[12] = 1 mM, simultaneously exposed to drug and HIV

## O=C(CO)N[C@H]1[C@H]([C@H](O)[C@H](O)CO)OC(O)(C(=O)O)C[C@@H]1O (stereo partly drawn) [N-glycolylneuraminic acid]
[1]; 0.0001 mM, 2-hour pretreatment
  Reverse Transcriptase (RT) Activity (cpm), Mean: 2763.7 cpm
  RT activity % VC: 134.2%
[1]; [3]
  RT Activity (cpm), Mean: 2348.3 cpm
  RT activity % VC: 78.5%
  RT Activity (cpm): 2423.0 cpm and 2253.0 cpm and 2369.0 cpm
[1]; [4]
  Reverse Transcriptase (RT) Activity (cpm), Mean: 2015.3 cpm
  RT activity % VC: 97.8%
[1]; [5]
  RT Activity (cpm), Mean: 2795.0 cpm
  RT activity % VC: 93.4%
[1]; 0.001 mM, 2-hour pretreatment
  Reverse Transcriptase (RT) Activity (cpm), Mean: 1867.0 cpm
  RT activity % VC: 90.6%
[1]; [6]
  RT Activity (cpm), Mean: 3108.7 cpm
  RT activity % VC: 103.9%
[1]; 0.0032 mM, 2-hour pretreatment
  Reverse Transcriptase (RT) Activity (cpm), Mean: 2529.0 cpm
  RT activity % VC: 122.8%
  Reverse Transcriptase (RT) Activity (cpm): 2381.0 cpm and 3368.0 cpm and 1838.0 cpm
[1]; [7]
  RT Activity (cpm), Mean: 2892.7 cpm
  RT activity % VC: 96.7%
[1]; 0.01 mM, 2-hour pretreatment
  Reverse Transcriptase (RT) Activity (cpm), Mean: 951.3 cpm
  RT activity % VC: 46.2%
[1]; [8]
  RT Activity (cpm), Mean: 2163.3 cpm
  RT activity % VC: 72.3%
  RT Activity (cpm): 2284.0 cpm and 2280.0 cpm and 1926.0 cpm
[1]; 0.032 mM, 2-hour pretreatment
  Reverse Transcriptase (RT) Activity (cpm), Mean: 561.7 cpm
  RT activity % VC: 27.3%
[1]; [9]
  RT Activity (cpm), Mean: 1867.3 cpm
  RT activity % VC: 62.4%
  RT Activity (cpm): 1814.0 cpm and 2094.0 cpm and 1694.0 cpm
[1]; 0.1 mM, 2-hour pretreatment
  Reverse Transcriptase (RT) Activity (cpm), Mean: 459.0 cpm
  RT activity % VC: 22.3%
[1]; [10]
  RT Activity (cpm), Mean: 906.3 cpm
  RT activity % VC: 30.3%
[1]; 0.32 mM, 2-hour pretreatment
  Reverse Transcriptase (RT) Activity (cpm), Mean: 146.7 cpm
  RT activity % VC: 7.1%
  Reverse Transcriptase (RT) Activity (cpm): 196.0 cpm and 140.0 cpm and 104.0 cpm
[1]; [11]
  RT Activity (cpm), Mean: 102.7 cpm
  RT Activity (cpm): 132.0 cpm and 108.0 cpm and 68.0 cpm
[1]; 1 mM, 2-hour pretreatment
  Reverse Transcriptase (RT) Activity (cpm), Mean: 76.0 cpm
  RT activity % VC: 3.7%
  Reverse Transcriptase (RT) Activity (cpm): 72.0 cpm and 68.0 cpm and 88.0 cpm
[1]; [12]
  RT Activity (cpm), Mean: 204 cpm
  RT activity % VC: 6.8%
[1]; PBMCs, 2hr pretreatment
  IC50: ~10 µM
[1]; PBMCs, simultaneously exposed to drug and HIV, without a pretreatment
  IC50: ~58 µM
[1]; PBMCs, simultaneously exposed to drug and HIV
  TI: > 17.25
[1]; PBMCs, with and without a 2hr pretreatment of the cells
  anti-HIV activity: active
[2]; Neu5Gc dilution 1:2
  CPE: negative
  O.D.: 0.017
  P-24: 320 picograms HIV-1 p24 per mL
  Syncytia: negative
[2]; Neu5Gc dilution 1:4
  CPE: negative
  O.D.: 0.043
  P-24: 922 picograms HIV-1 p24 per mL
  Syncytia: negative
[2]; Neu5Gc dilution 1:8
  CPE: negative
  O.D.: 0.057
  P-24: 871 picograms HIV-1 p24 per mL
  Syncytia: negative
[2]; Neu5Gc dilution 1:16
  CPE: negative
  O.D.: 0.061
  P-24: 824 picograms HIV-1 p24 per mL
  Syncytia: negative
[2]; Neu5Gc dilution 1:32
  CPE: negative
  O.D.: 0.012
  P-24: 265 picograms HIV-1 p24 per mL
  Syncytia: negative
[2]; Neu5Gc dilution 1:64
  CPE: negative
  O.D.: 0.041
  P-24: 865 picograms HIV-1 p24 per mL
  Syncytia: negative
[2]; human, pbmcs
  cell viability: 25%
[2]; samples treated with N-glycolylneuraminic acid (corrected for dilution factor)
  Mean p24 output: 624± 326 pg HIV-1P24/ml
